Test results published in patent US6525001B1, “Substituted pyrimidine and pyridine herbicides” (Mid-American Commercialization Corporation, priority 1997, dated 2003).

How the values were obtained:
Assay type in all cases: in vivo
Design in all cases: key: 0 is no effect; 10 is complete control
[1] = tested on: wheat (Triticum aestivum); assay: Test B pre-/postemergence
In short: (§1)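 Compounds in a surfactant-containing, non-phytotoxic solvent blend are applied to freshly planted seed (preemergence) and, concurrently, to seedlings of 2 to 18 cm at 1–4 leaves (postemergence). Plants stay in the greenhouse twelve to sixteen days and are then scored visually from 0 (no effect) to 10 (complete control).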

rape (Brassica napus) = assay: Test B pre-/postemergence
In short: as §1

[2] = tested on: sugar beet (Beta vulgaris); assay: Test B pre-/postemergence
In short: as §1

[3] = tested on: velvetleaf (Abutilon theophrasti); assay: Test B pre-/postemergence
In short: as §1

soybean (Glycine max) = assay: Test B pre-/postemergence
In short: as §1

[4] = tested on: purple nutsedge (Cyperus rotundus); assay: Test B pre-/postemergence; settings: for Plant response rating, Nutsedge: Preemergence; for Nutsedge plant response rating: Postemergence
In short: as §1

corn (Zea mays) = assay: Test B pre-/postemergence
In short: as §1

[5] = tested on: giant foxtail (Setaria faberii); assay: Test B pre-/postemergence
In short: as §1

[6] = tested on: bedstraw (Galium aparine); assay: Test B pre-/postemergence
In short: as §1

wild oat (Avena fatua) = assay: Test B pre-/postemergence
In short: as §1

[7] = tested on: crabgrass (Digitaria sanguinalis); assay: Test B pre-/postemergence
In short: as §1

[8] = tested on: smallflower flatsedge (Cyperus difformis); assay: Test B flood test; settings: for Plant response rating, S. Flatsedge: Postemergence (flood test species)
In short: (§2)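 Read-out is a visual response score from 0 (no effect) to 10 (complete control), assigned by comparison with untreated controls. Treatment was applied at the 2-leaf stage, and plants stayed in the greenhouse for twelve to sixteen days before scoring.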

[9] = tested on: duck salad (Heteranthera limosa); assay: Test B flood test; settings: for Plant response rating, Ducksalad: Postemergence (flood test species)
In short: as §2

[10] = tested on: bamyardgrass (Echinochloa crus-galli); assay: Test B flood test; settings: for Plant response rating, Barnyardgrass: Postemergence (flood test species)
In short: as §2

rice (Oryza sativa) = assay: Test B flood test; settings: for Plant response rating, Rice: Postemergence (flood test species)
In short: as §2

[11] = Preemergence, Rate 62 g/ha, scale of 0 to 10
[12] = Rate 62 g/ha, Postemergence (flood test)
[13] = Rate 125 g/ha, Postemergence section (flood test species)

Cc1cnc(-n2ccc(C(F)(F)C(F)(F)F)n2)nc1C(=O)c1cccc(OC(F)(F)F)c1 [Compound 62]
Plant response rating, Wheat [1, 11]: 0
Wheat plant response rating ([1]; Rate 62 g/ha, Postemergence): 1
Wheat plant response rating ([1]; Rate 125 g/ha, Postemergence): 2
Plant response rating, Wheat ([1]; Rate 125 g/ha, Preemergence): 0
Plant response rating, Wheat ([1]; Rate 250 g/ha, Postemergence): 2
Plant response rating, Wheat ([1]; Rate 250 g/ha, Preemergence): 0
Plant response rating, Wheat ([1]; Rate 500 g/ha, Postemergence): 3
Plant response rating, Wheat ([1]; Rate 500 g/ha, Preemergence): 0
Plant response rating, Rape (rape (Brassica napus); [11]): 0
Rape plant response rating (rape (Brassica napus); Rate 62 g/ha, Postemergence): 2
Rape plant response rating (rape (Brassica napus); Rate 125 g/ha, Postemergence): 2
Plant response rating, Rape (rape (Brassica napus); Rate 125 g/ha, Preemergence): 1
Plant response rating, Rape (rape (Brassica napus); Rate 250 g/ha, Postemergence): 2
Plant response rating, Rape (rape (Brassica napus); Rate 250 g/ha, Preemergence): 2
Plant response rating, Rape (rape (Brassica napus); Rate 500 g/ha, Postemergence): 3
Plant response rating, Rape (rape (Brassica napus); Rate 500 g/ha, Preemergence): 3
Plant response rating, Sugarbeets [2, 11]: 8
Sugarbeets plant response rating ([2]; Rate 62 g/ha, Postemergence): 9
Sugarbeets plant response rating ([2]; Rate 125 g/ha, Postemergence): 9
Plant response rating, Sugarbeets ([2]; Rate 125 g/ha, Preemergence): 10
Plant response rating, Sugarbeets ([2]; Rate 250 g/ha, Postemergence): 9
Plant response rating, Sugarbeets ([2]; Rate 250 g/ha, Preemergence): 10
Plant response rating, Sugarbeets ([2]; Rate 500 g/ha, Postemergence): 9
Plant response rating, Sugarbeets ([2]; Rate 500 g/ha, Preemergence): 10
Plant response rating, Velvetleaf [3, 11]: 1
Velvetleaf plant response rating ([3]; Rate 62 g/ha, Postemergence): 2
Velvetleaf plant response rating ([3]; Rate 125 g/ha, Postemergence): 2
Plant response rating, Velvetleaf ([3]; Rate 125 g/ha, Preemergence): 2
Plant response rating, Velvetleaf ([3]; Rate 250 g/ha, Postemergence): 2
Plant response rating, Velvetleaf ([3]; Rate 250 g/ha, Preemergence): 2
Plant response rating, Velvetleaf ([3]; Rate 500 g/ha, Postemergence): 3
Plant response rating, Velvetleaf ([3]; Rate 500 g/ha, Preemergence): 7
Plant response rating, Soybean (soybean (Glycine max); [11]): 0
Soybean plant response rating (soybean (Glycine max); Rate 62 g/ha, Postemergence): 1
Soybean plant response rating (soybean (Glycine max); Rate 125 g/ha, Postemergence): 1
Plant response rating, Soybean (soybean (Glycine max); Rate 125 g/ha, Preemergence): 0
Plant response rating, Soybean (soybean (Glycine max); Rate 250 g/ha, Postemergence): 1
Plant response rating, Soybean (soybean (Glycine max); Rate 250 g/ha, Preemergence): 0
Plant response rating, Soybean (soybean (Glycine max); Rate 500 g/ha, Postemergence): 2
Plant response rating, Soybean (soybean (Glycine max); Rate 500 g/ha, Preemergence): 1
Plant response rating, Nutsedge ([4]; Rate 62 g/ha, scale of 0 to 10): 0
Nutsedge plant response rating ([4]; Rate 62 g/ha): 0
Nutsedge plant response rating ([4]; Rate 125 g/ha): 0
Plant response rating, Nutsedge ([4]; Rate 125 g/ha): 0
Plant response rating, Nutsedge ([4]; Rate 250 g/ha): 0
Plant response rating, Nutsedge ([4]; Rate 500 g/ha): 0
Plant response rating, Corn (corn (Zea mays); [11]): 0
Corn plant response rating (corn (Zea mays); Rate 62 g/ha, Postemergence): 1
Corn plant response rating (corn (Zea mays); Rate 125 g/ha, Postemergence): 2
Plant response rating, Corn (corn (Zea mays); Rate 125 g/ha, Preemergence): 0
Plant response rating, Corn (corn (Zea mays); Rate 250 g/ha, Postemergence): 2
Plant response rating, Corn (corn (Zea mays); Rate 250 g/ha, Preemergence): 1
Plant response rating, Corn (corn (Zea mays); Rate 500 g/ha, Postemergence): 2
Plant response rating, Corn (corn (Zea mays); Rate 500 g/ha, Preemergence): 2
Plant response rating, Giant foxtail [5, 11]: 1
Giant foxtail plant response rating ([5]; Rate 62 g/ha, Postemergence): 1
Giant foxtail plant response rating ([5]; Rate 125 g/ha, Postemergence): 2
Plant response rating, Giant foxtail ([5]; Rate 125 g/ha, Preemergence): 2
Plant response rating, Giant foxtail ([5]; Rate 250 g/ha, Postemergence): 2
Plant response rating, Giant foxtail ([5]; Rate 250 g/ha, Preemergence): 4
Plant response rating, Giant foxtail ([5]; Rate 500 g/ha, Postemergence): 3
Plant response rating, Giant foxtail ([5]; Rate 500 g/ha, Preemergence): 4
Plant response rating, Bedstraw [6, 11]: 0
Bedstraw plant response rating ([6]; Rate 62 g/ha, Postemergence): 3
Bedstraw plant response rating ([6]; Rate 125 g/ha, Postemergence): 3
Plant response rating, Bedstraw ([6]; Rate 125 g/ha, Preemergence): 1
Plant response rating, Bedstraw ([6]; Rate 250 g/ha, Postemergence): 3
Plant response rating, Bedstraw ([6]; Rate 250 g/ha, Preemergence): 2
Plant response rating, Bedstraw ([6]; Rate 500 g/ha, Postemergence): 4
Plant response rating, Bedstraw ([6]; Rate 500 g/ha, Preemergence): 6
Plant response rating, Wild oats (wild oat (Avena fatua); [11]): 1
Wild oats plant response rating (wild oat (Avena fatua); Rate 62 g/ha, Postemergence): 1
Wild oats plant response rating (wild oat (Avena fatua); Rate 125 g/ha, Postemergence): 1
Plant response rating, Wild oats (wild oat (Avena fatua); Rate 125 g/ha, Preemergence): 3
Plant response rating, Wild oats (wild oat (Avena fatua); Rate 250 g/ha, Postemergence): 1
Plant response rating, Wild oats (wild oat (Avena fatua); Rate 250 g/ha, Preemergence): 4
Plant response rating, Wild oats (wild oat (Avena fatua); Rate 500 g/ha, Postemergence): 3
Plant response rating, Wild oats (wild oat (Avena fatua); Rate 500 g/ha, Preemergence): 4
Plant response rating, Crabgrass [7, 11]: 2
Crabgrass plant response rating ([7]; Rate 62 g/ha, Postemergence): 2
Crabgrass plant response rating ([7]; Rate 125 g/ha, Postemergence): 3
Plant response rating, Crabgrass ([7]; Rate 125 g/ha, Preemergence): 3
Plant response rating, Crabgrass ([7]; Rate 250 g/ha, Postemergence): 5
Plant response rating, Crabgrass ([7]; Rate 250 g/ha, Preemergence): 9
Plant response rating, Crabgrass ([7]; Rate 500 g/ha, Postemergence): 8
Plant response rating, Crabgrass ([7]; Rate 500 g/ha, Preemergence): 10
S. Flatsedge plant response rating [8, 12]: 3
S. Flatsedge plant response rating [8, 13]: 6
Plant response rating, S. Flatsedge ([8]; Rate 250 g/ha): 7
Plant response rating, S. Flatsedge ([8]; Rate 500 g/ha): 8
Ducksalad plant response rating [9, 12]: 0
Ducksalad plant response rating [9, 13]: 0
Plant response rating, Ducksalad ([9]; Rate 250 g/ha): 0
Plant response rating, Ducksalad ([9]; Rate 500 g/ha): 2
Barnyardgrass plant response rating [10, 12]: 1
Barnyardgrass plant response rating [10, 13]: 2
Plant response rating, Barnyardgrass ([10]; Rate 250 g/ha): 3
Plant response rating, Barnyardgrass ([10]; Rate 500 g/ha): 4
Rice plant response rating (rice (Oryza sativa); [12]): 0
Rice plant response rating (rice (Oryza sativa); [13]): 0
Plant response rating, Rice (rice (Oryza sativa); Rate 250 g/ha): 0
Plant response rating, Rice (rice (Oryza sativa); Rate 500 g/ha): 0
